Assay: Reference Example 1: bulk powder left in air, residual ratio
Format: physicochemical
Details: 40° C. and 75% RH in the air, 1 month
Method: A bulk powder of Compound A and sodium ascorbate were respectively left to stand for 1 month at 40° C. and 75% RH in the air, and then residual ratios thereof were measured. As a result, the residual ratio of Compound A was 89.7% (W/W), and the residual ratio of sodium ascorbate was 99.0% (W/W). Quantification of Compound A was carried out by a HPLC method under the following conditions. Solvent: acetonitrile Measurement wavelength: 287 nm Column: CHIRALCEL OJ-R 4.6 mm×150 mm (manufactured by Daicel Chemical Industries, Ltd.) Mobile phase: mixed solution of acetonitrile/10 mM aqueous ammonium acetate solution (16:9) Oven temperature: around 25° C. Quantification of sodium ascorbate was carried out by an iodine titration technique (solvent: metaphosphoric acid solution (1→50), indicator: starch test solution).

Row | SMILES | residual ratio
1 | COc1cc2c(cc1OC)CN(c1c(C)c(C)c3c(c1C)[C@@H](c1ccc(C)cc1)C(C)(C)O3)C2 [Compound A, (R)-5,6-dimethoxy-2-[2,2,4,6,7-pentamethyl-3-(4-methylphenyl)-2,3-dihydro-1-benzofuran-5-yl]isoindoline] | 89.7 % (W/W)
2 | O=C1O[C@H]([C@@H](O)CO)C([O-])=C1O.[Na+] [sodium ascorbate] | 99.0 % (W/W)
